Measurements as given in article PMC3293837, “Biophysical Property and Broad Anti-HIV Activity of Albuvirtide, a 3-Maleimimidopropionic Acid-Modified Peptide Fusion Inhibitor” (PLoS ONE, 2012).

Tests used:
Format in all cases: cell-based, HIV-1
[1] = tested on: YN192.31 pseudovirus (CRF01_AE); conditions: YN192.31, CRF01_AE, R5; TZM-bl, 48 h; triplicate, mean ± SD of at least three independent experiments
Source text: (§1) A panel of plasmids encoding HIV-1 Envs were obtained through the AIDS Research and Reference Reagent Program (ARRRP), Division of AIDS, NIAID, NIH, including subtype A Env clones pSVIII-92RW020.5 and 92UG037.8 from Dr. B.H. Hahn; subtype B Env clones SC422661.8, TRO.11 and AC10.0.29 from Drs. D. Montefiori, F. Gao and M. Li, pRHPA4259.7 and pREJO4541.67 from Drs. B.H. Hahn and J.F. Salazar-Gonzalez, and pCAAN5342.A2 from Drs. B.H. Hahn and D.L. Kothe; subtype C Env clones Du172.17 and Du422.1 from Drs. D. Montefiori, F. Gao, S. Abdool Karim and G. Ramjee, CAP45.2.00.G3 from Drs. L. Morris, K. Mlisana and D. Montefiori, ZM197M.PB7 from Drs. B.H. Hahn, Y. Li and J.F. Salazar-Gonzalez, ZM109F.PB4 from Drs. E. Hunter and C. Derdeyn. Six CRF07_BC Env clones (CH064.20, CH070.1, CH091.9, CH110.2, CH119.10 and CH120.6) were generous gifts by Dr. Y. Shao in the Chinese Center for Disease Control and Prevention, Beijing, China. A panel of Env clones derived from subtype B′ (B01, B02, B04, and 43-22), CRF01_AE (SHX335.24, YN192.31, AE01, AE03, GX2010.36, GX11.13, GX2010.36H, BJ5.11), and CRF07_BC (BC02, BC03, BC05, BC07, BC14, SC19-15, BJ22-5, YN148R-9, XJ50-6, HB5-3) were kindly provided by Dr. Y. Wang from the National Institute for the Control of Pharmaceutical and Biological Products, Beijing, China.

[2] = tested on: SC422661.8 pseudovirus (subtype B); conditions: SC422661.8, subtype B, R5; TZM-bl, 48 h; triplicate, mean ± SD of three independent experiments
Source text: as §1

[3] = tested on: AE03 pseudovirus (CRF01_AE); conditions: R5, TZM-bl, 48 h, triplicate, mean ± SD of at least three independent experiments
Source text: as §1

[4] = tested on: BJ5.11 pseudovirus (CRF01_AE); conditions: BJ5.11, CRF01_AE, R5; TZM-bl, 48 h; triplicate, mean ± SD of at least three independent experiments
Source text: as §1

[5] = tested on: CH119 pseudovirus (CRF07_BC); conditions: R5, TZM-bl, 48 h, triplicate, mean ± SD of at least three independent experiments
Source text: as §1

[6] = tested on: XJ50-6 pseudovirus (CRF07_BC); conditions: XJ50-6, CRF07_BC, R5; TZM-bl, 48 h; triplicate, mean ± SD of at least three independent experiments
Source text: as §1

[7] = tested on: SHX335.24 pseudovirus (CRF01_AE); conditions: SHX335.24, CRF01_AE, R5; TZM-bl, 48 h; triplicate, mean ± SD of at least three independent experiments
Source text: as §1

[8] = tested on: AC10.0.29 pseudovirus (subtype B); conditions: AC10.0.29, subtype B, R5; TZM-bl, 48 h; triplicate, mean ± SD of three independent experiments
Source text: as §1

[9] = tested on: CAP45.2.00.G3 pseudovirus (subtype C); conditions: CAP45.2.00.G3, subtype C, R5; TZM-bl, 48 h; triplicate, mean ± SD of three independent experiments
Source text: as §1

[10] = tested on: GX2010.36 pseudovirus (CRF01_AE); conditions: GX2010.36, CRF01_AE, R5; TZM-bl, 48 h; triplicate, mean ± SD of at least three independent experiments
Source text: as §1

[11] = tested on: CH120 pseudovirus (CRF07_BC); conditions: R5, TZM-bl, 48 h, triplicate, mean ± SD of at least three independent experiments
Source text: as §1

[12] = tested on: BJ22-5 pseudovirus (CRF07_BC); conditions: BJ22-5, CRF07_BC, R5; TZM-bl, 48 h; triplicate, mean ± SD of at least three independent experiments
Source text: as §1

[13] = tested on: GX11.13 pseudovirus (CRF01_AE); conditions: GX11.13, CRF01_AE, R5; TZM-bl, 48 h; triplicate, mean ± SD of at least three independent experiments
Source text: as §1

[14] = tested on: TRO.11 pseudovirus (subtype B); conditions: TRO.11, subtype B, R5; TZM-bl, 48 h; triplicate, mean ± SD of three independent experiments
Source text: as §1

[15] = tested on: BC07 pseudovirus (CRF07_BC); conditions: R5, TZM-bl, 48 h, triplicate, mean ± SD of at least three independent experiments
Source text: as §1

[16] = tested on: AE01 pseudovirus (CRF01_AE); conditions: R5, TZM-bl, 48 h, triplicate, mean ± SD of at least three independent experiments
Source text: as §1

[17] = tested on: BC03 pseudovirus (CRF07_BC); conditions: R5, TZM-bl, 48 h, triplicate, mean ± SD of at least three independent experiments
Source text: as §1

[18] = tested on: B01 pseudovirus (subtype B′); conditions: R5, TZM-bl, 48 h, triplicate, mean ± SD of at least three independent experiments
Source text: as §1

[19] = tested on: RHPA4259 pseudovirus (subtype B); conditions: R5, TZM-bl, 48 h, triplicate, mean ± SD of three independent experiments
Source text: as §1

[20] = tested on: CH110 pseudovirus (CRF07_BC); conditions: R5, TZM-bl, 48 h, triplicate, mean ± SD of at least three independent experiments
Source text: as §1

[21] = tested on: 43-22 pseudovirus (subtype B′); conditions: 43-22, B′, R5; TZM-bl, 48 h; triplicate, mean ± SD of at least three independent experiments
Source text: as §1

enfuvirtide
IC50 [1]: 0.0685 ± 0.00325 µM
IC50 [2]: 0.0282 ± 0.00592 µM
IC50 [3]: 0.0078 ± 0.00166 µM
IC50 [4]: 0.342 ± 0.132 µM
IC50 [5]: 0.0221 ± 0.00274 µM
IC50 [6]: 0.0811 ± 0.0176 µM
IC50 [7]: 0.051 ± 0.00735 µM
IC50 [8]: 0.0101 ± 0.00045 µM
IC50 [9]: 0.0962 ± 0.00691 µM
IC50 [10]: 0.0181 ± 0.00375 µM
IC50 [11]: 0.0504 ± 0.00422 µM
IC50 [12]: 0.0258 ± 0.00417 µM
IC50 [13]: 0.0066 ± 0.00032 µM
IC50 [14]: 0.334 ± 0.0489 µM
IC50 [15]: 0.0125 ± 0.00158 µM
IC50 [16]: 0.0248 ± 0.00225 µM
IC50 [17]: 0.00346 ± 0.00041 µM
IC50 [18]: 0.0495 ± 0.00241 µM
IC50 [19]: 0.2819 ± 0.00057 µM
IC50 [20]: 0.0186 ± 0.00315 µM
IC50 [21]: 0.0121 ± 0.00324 µM
